Test results: patent US11339128B2 (Firmenich Incorporated, priority 2014, dated 2022)

Tests used:
[1] = Sensory paired-comparison sweetness test of sweetener (sucrose or high-fructose corn syrup) with test compound; format: in vivo, human; settings: test compound 10 ppm or less with 6% sucrose, low sodium buffer pH 7.1; sucrose-alone concentration of equivalent perceived sweetness
Procedure: Test samples containing either a sweetener (sucrose or high-fructose corn syrup) alone or in combination with a test compound were presented in pairs to a group of panelist who were asked to determine which of the samples was sweeter. Subjects refrained from eating or drinking (except water) for at least 1 hour prior to the test. Subjects rinsed with water several times to clean the mouth. The samples within a paired comparison test were presented in a randomized, counterbalanced order. Panelists had up to a 1 minute delay between taste tests to clear the mouth of any tastes. Binomial probability tables were used to determine the probability of the correct number of responses occurring for each test at alpha-0.05.
Stock solutions of test compounds were prepared at 1000× final concentration with ethanol to ensure dispersion in solution. Test compound samples including sucrose were prepared by diluting the stock solutions in a low sodium buffer (0.952 g of KCl, 5.444 g of Na2HPO4, and 0.952 g of KH2PO4 in deionized ultrafiltered water) at pH 7.1 and containing sucrose. Test compound samples including high fructose corn syrup were prepared by diluting the stock solutions in the low sodium buffer at pH 2.8 (using citric acid to adjust the pH) and containing high fructose corn syrup. Control samples were balanced to 0.1% ethanol final.
In samples containing the test compound, the test compound was present at a concentration of 10 ppm or less and the concentration of sucrose was 6%. This table indicates the sucrose-alone concentration having a perceived sweetness intensity equivalent to the sweetness intensity of the combination of test compound and sucrose. An “A” value indicates an equivalent sucrose concentration greater than 6% and less than 10%. A “B” value indicates an equivalent sucrose concentration of 10% or greater. […]

T1R2/T1R3 taste receptor = molecular target: T1, T1R2/T1R3 taste receptor (Homo sapiens, UniProt Q7RTX0+Q8TE23); assay: Receptor-based assay: sweetener EC50 enhancement ratio with and without test compound; format: cell-based; settings: for Sucrose Enhancement EC50 Ratio: sweetener sucrose; for Sucralose Enhancement EC50 Ratio: sweetener sucralose; for Fructose Enhancement EC50 Ratio: sweetener fructose
T1 sequence (Q8TE23 20-839): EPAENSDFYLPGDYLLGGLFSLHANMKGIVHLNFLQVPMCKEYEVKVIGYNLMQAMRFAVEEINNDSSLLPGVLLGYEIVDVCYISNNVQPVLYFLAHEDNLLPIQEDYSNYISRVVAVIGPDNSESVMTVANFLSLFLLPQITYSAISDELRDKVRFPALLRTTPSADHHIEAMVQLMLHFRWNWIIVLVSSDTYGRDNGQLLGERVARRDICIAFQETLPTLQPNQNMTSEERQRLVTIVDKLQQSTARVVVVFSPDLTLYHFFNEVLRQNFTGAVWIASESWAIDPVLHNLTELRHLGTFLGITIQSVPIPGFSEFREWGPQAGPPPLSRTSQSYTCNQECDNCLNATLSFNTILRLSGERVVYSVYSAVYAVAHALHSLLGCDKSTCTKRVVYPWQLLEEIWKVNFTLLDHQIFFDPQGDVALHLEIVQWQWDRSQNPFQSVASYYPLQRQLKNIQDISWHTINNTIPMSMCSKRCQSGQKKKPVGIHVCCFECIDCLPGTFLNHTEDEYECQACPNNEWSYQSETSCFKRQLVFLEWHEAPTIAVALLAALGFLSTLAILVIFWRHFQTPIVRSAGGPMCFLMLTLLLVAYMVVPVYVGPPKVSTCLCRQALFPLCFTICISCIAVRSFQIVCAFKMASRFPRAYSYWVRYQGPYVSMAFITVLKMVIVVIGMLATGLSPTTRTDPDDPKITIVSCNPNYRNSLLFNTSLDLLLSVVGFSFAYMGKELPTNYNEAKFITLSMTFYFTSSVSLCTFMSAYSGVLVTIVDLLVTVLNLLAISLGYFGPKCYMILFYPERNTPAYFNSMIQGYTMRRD
T1 sequence (Q7RTX0 21-852): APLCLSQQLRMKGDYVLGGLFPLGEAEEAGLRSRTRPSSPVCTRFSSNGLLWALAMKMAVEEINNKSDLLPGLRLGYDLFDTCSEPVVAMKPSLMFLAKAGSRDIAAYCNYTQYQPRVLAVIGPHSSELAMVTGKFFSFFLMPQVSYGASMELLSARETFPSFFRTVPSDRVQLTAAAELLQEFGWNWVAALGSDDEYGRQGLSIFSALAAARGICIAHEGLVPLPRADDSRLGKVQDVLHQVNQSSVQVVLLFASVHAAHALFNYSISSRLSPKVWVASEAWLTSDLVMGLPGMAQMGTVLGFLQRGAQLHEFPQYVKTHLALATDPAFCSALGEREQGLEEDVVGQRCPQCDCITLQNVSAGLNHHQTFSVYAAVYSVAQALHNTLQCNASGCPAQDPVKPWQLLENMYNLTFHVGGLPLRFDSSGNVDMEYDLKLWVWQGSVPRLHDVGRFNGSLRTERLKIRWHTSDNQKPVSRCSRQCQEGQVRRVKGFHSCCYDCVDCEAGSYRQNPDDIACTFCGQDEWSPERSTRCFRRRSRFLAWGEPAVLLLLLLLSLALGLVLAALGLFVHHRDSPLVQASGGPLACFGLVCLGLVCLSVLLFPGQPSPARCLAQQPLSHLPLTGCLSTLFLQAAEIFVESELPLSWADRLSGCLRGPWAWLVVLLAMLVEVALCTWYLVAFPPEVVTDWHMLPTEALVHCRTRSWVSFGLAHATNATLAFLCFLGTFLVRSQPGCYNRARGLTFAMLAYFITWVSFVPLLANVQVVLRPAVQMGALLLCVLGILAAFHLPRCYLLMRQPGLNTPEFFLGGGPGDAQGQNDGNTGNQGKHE
In short: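 Sweetener (sucrose, sucralose, fructose) EC50 measured alone and with 1, 3, 10 or 50 μM test compound. Enhancement ratio = EC50 without/with compound; A = >1 to <10, B = 10–20, C = >20.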

Row | Sucrose Enhancement EC50 Ratio (T1R2/T1R3 taste receptor; 1 μM test compound) | Sucrose Enhancement EC50 Ratio (T1R2/T1R3 taste receptor; 3 μM test compound) | Sucrose Enhancement EC50 Ratio (T1R2/T1R3 taste receptor; 10 μM test compound) | melting point | Sucralose Enhancement EC50 Ratio (T1R2/T1R3 taste receptor; 10 μM test compound) | Sucralose Enhancement EC50 Ratio (T1R2/T1R3 taste receptor; 3 μM test compound) | SMILES | Equivalent Sucrose Conc. [1] | Fructose Enhancement EC50 Ratio (T1R2/T1R3 taste receptor; 10 μM test compound)
1 | B (an enhancement ratio from 10 to 20) | C (an enhancement ratio greater than 20) | C (an enhancement ratio greater than 20) | 225 to 228 °C |  |  | Cc1nc2cccc(O[C@H]3CC[C@H](C)CC3)c2c(N)c1C(=O)O [Compound 100, 4-Amino-2-methyl-5-((trans-4-methylcyclohexyl)oxy)quinoline-3-carboxylic acid] | B (an equivalent sucrose concentration of 10% or greater) | 
2 | B (an enhancement ratio from 10 to 20) | C (an enhancement ratio greater than 20) | C (an enhancement ratio greater than 20) | 204 to 206 °C | B (an enhancement ratio from 10 to 20) |  | CCOCC(=O)N[C@H]1CC[C@H](Oc2cccc3nc(C)c(C(=O)O)c(N)c23)CC1 [Compound 300, 4-Amino-5-((trans-4-(2-ethoxyacetamido)cyclohexyl)oxy)-2-methylquinoline-3-carboxylic acid] | B (an equivalent sucrose concentration of 10% or greater) | 

Row | SMILES | Sucrose Enhancement EC50 Ratio (T1R2/T1R3 taste receptor; 1 μM test compound) | Sucrose Enhancement EC50 Ratio (T1R2/T1R3 taste receptor; 3 μM test compound) | Sucrose Enhancement EC50 Ratio (T1R2/T1R3 taste receptor; 10 μM test compound) | melting point | Sucralose Enhancement EC50 Ratio (T1R2/T1R3 taste receptor; 10 μM test compound) | Sucralose Enhancement EC50 Ratio (T1R2/T1R3 taste receptor; 3 μM test compound) | Equivalent Sucrose Conc. [1] | Fructose Enhancement EC50 Ratio (T1R2/T1R3 taste receptor; 10 μM test compound)
3 | Cc1nc2cccc(O[C@H]3CC[C@H](NC(=O)COC4CCC4)CC3)c2c(N)c1C(=O)O [Compound 309] | B (an enhancement ratio from 10 to 20) | A (an enhancement ratio of greater than 1 and less than 10) | B (an enhancement ratio from 10 to 20) |  | B (an enhancement ratio from 10 to 20) | B (an enhancement ratio from 10 to 20) | B (an equivalent sucrose concentration of 10% or greater) | A (an enhancement ratio of greater than 1 and less than 10)
4 | Cc1nc2cccc(O[C@H]3CC[C@H](NC(=O)COC4CCCC4)CC3)c2c(N)c1C(=O)O [Compound 310] | C (an enhancement ratio greater than 20) |  |  |  | A (an enhancement ratio of greater than 1 and less than 10) | B (an enhancement ratio from 10 to 20) | B (an equivalent sucrose concentration of 10% or greater) | A (an enhancement ratio of greater than 1 and less than 10)
5 | Cc1nc2cccc(O[C@H]3CC[C@H](NC(=O)COC4CCCCC4)CC3)c2c(N)c1C(=O)O [Compound 311] | B (an enhancement ratio from 10 to 20) | A (an enhancement ratio of greater than 1 and less than 10) |  |  |  | A (an enhancement ratio of greater than 1 and less than 10) | A (an equivalent sucrose concentration greater than 6% and less than 10%) | 
6 | Cc1nc2cccc(O[C@H]3CC[C@H](Nc4ncccn4)CC3)c2c(N)c1C(=O)O [Compound 700, 4-Amino-2-methyl-5-((trans-4-(pyrimidin-2-ylamino)cyclohexyl)oxy) quinolone-3-carboxylic acid] | A (an enhancement ratio of greater than 1 and less than 10) | C (an enhancement ratio greater than 20) | C (an enhancement ratio greater than 20) |  | C (an enhancement ratio greater than 20) | C (an enhancement ratio greater than 20) | B (an equivalent sucrose concentration of 10% or greater) | 
